Source: patent US4996236A, “Therapeutic composition for hepatic encephalopathy” (Takeda Chemical Industries, Ltd., priority 1988, dated 1991)

How the values were obtained:
[1] = Acute oral toxicity in mice; conditions: mouse, in vivo, mice (NRMI)
[2] = Acute oral toxicity in rats; conditions: rat, in vivo, rats (Wistar)
[3] = Blood ammonia level-lowering effect in rats on high-protein diet; type: in vivo, rat (male SD); conditions: for Blood ammonia level: 7 days, mean ± S.D., 5 animals
Experimental: The blood ammonia level-lowering effect of N-(1,3-dihydroxy-2-propyl)valiolamine in rats
Male SD rats aged […] were fed either on a regular diet or a high-protein powder diet containing 61% of casein for 7 days. N-(1,3-dihydroxy-2-propyl)valiolamine (hereinafter referred to shortly as AO-128) was added to the high-protein diet at final concentrations of 10 and 50 ppm. The animals had free access to the diets and the mean daily food intake was approximately 18 g/day. On the 7th day, laparotomy was performed under ether anesthesia and the blood was collected from the abdominal aorta. The blood ammonia level was estimated using an assay kit, a product of WAKO.

[4] = diabetics accompanied with hepatocirrhosis; cited from earlier work
α-glucosidase = conditions: cited from earlier work

Row | SMILES | LD50 [1] [mg/kg] | LD50 [2] [mg/kg] | Blood ammonia level ([3]; 10 ppm AO-128 in high-protein diet (61% casein)) [µg/dL] | Blood ammonia level ([3]; 50 ppm AO-128 in high-protein diet (61% casein)) [µg/dL] | blood ammonia level versus high-protein diet control group ([3]; AO-128 treated high-protein diet group, 10 and 50 ppm) | effect on blood ammonia level [4] | α-glucosidase inhibitory activity (α-glucosidase)
1 | OCC(CO)N[C@H]1C[C@](O)(CO)[C@@H](O)[C@H](O)[C@H]1O [AO-128, N-(1,3-dihydroxy-2-propyl)valiolamine] | 14700 to 21500 | ~20000 | 88 ± 7 | 90 ± 8 | overtly lower blood ammonia level than the high-protein diet control group |  | 
2 | C[C@H]1O[C@H](O[C@H]2[C@H](O)[C@@H](O)[C@@H](O[C@H]3[C@H](O)[C@@H](O)C(O)O[C@@H]3CO)O[C@@H]2CO)[C@H](O)[C@@H](O)[C@@H]1N[C@H]1C=C(CO)[C@@H](O)[C@H](O)[C@H]1O (stereo partly shown) [acarbose] |  |  |  |  |  | lowers the blood ammonia level | α-glucosidase inhibitor
